Usually Cmax stands for the highest concentration seen after dosing. One may read the Tmax as the time at which the peak concentration occurs.

Entries after “also recorded” stand apart in the source; their conditions may differ. Where two headings read alike, the source gives them in different places.

Series [1] in a line: Pharmacokinetic study after oral administration, plasma by UPLC-MS/MS. The class given is in vivo, C57BL/6J mice. The conditions noted are these: for Cmax / Tmax / CL/F / MRT last / MRT inf / half-life: C57BL/6J, mouse, mice plasma; for CL/F: read-out: CLz/F; for MRT last: read-out: MRT (0-t) (converted); for MRT inf: read-out: MRT (0-∞) (converted); for half-life: read-out: t1/2z. The protocol: Sorvall Biofuge Stratos high-speed refrigerated centrifuge was bought from the Thermo Fisher Scientific Co. Ltd. (Shanghai, China); EL204 electronic balance was selected from Shanghai Mettler-Toledo Instruments Co. Ltd. (Shanghai, China); IKA Vortex Genius 3 Vortex Mixer was purchased from Aika Instrument Equipment Co. Ltd. (Guangzhou, China); and the test was carried out using an AB SCIEX™ 5500 Q-Trap® mass spectrometer (Applied Biosystems, United States) coupled to a Shimadzu Prominence UPLC (ultra-performance liquid chromatography, Shimadzu, United States) system. It was equipped with a binary pump, a degasser, an auto sampler, and an automatic thermostatic column compartment. The column was utilized from Agela Technologies UHP Innoval C18 (2.1 × 50 mm, 1.9 μm; Agela Technologies; Made in China). The whole process with a gradient elution program is as follows: 0.00–0.50 min, 5% B; 0.50–1.50 min, 90% B; 1.50–3.00 min, 90% B; 3.00–3.10 min, 15% B; and 3.10–5.00 min, 15% B. The mobile phase was made up of 0.10% formic acid in water (A) and acetonitrile (B), and the velocity of flow was 0.50 ml/min. The auto sampler and column temperature were set at 15 and 40°C, respectively. The injection volume was 1 μl. The Q-Trap mass spectrometer was operated with positive electrospray ionization source (ESI) and scanned using the multiple-reaction monitoring (MRM) mode. The Analyst® software version 1.6.3 (Applied Bio-systems, AB SCIEX™, United States) was used to control the UPLC-MS/MS system. The best of the YWS01125 parameters was curtain gas, 35 psi; collision gas, medium; ion spray voltage, 5500 V; temperature, 500°C; ion source gas 1, 50 psi; and ion source gas 2, 50 psi. The quantitative analysis ion pairs of YWS01125 and MGL-3196 (IS) were m/z 446.2 → 375 and m/z 435.2 → 182, individually. The suitable collision energy (CE) of YWS01125 and IS was 42 and 50 eV, respectively, and the decluttering voltage (DP) was 160 and 180 V, respectively.
The frozen mice plasma samples and tissue homogenates were thawed at room temperature, vortexed for 1 min, then taken out in 10-μl aliquots in a 1.50-ml centrifuge tube, and this was then mixed with 1 μl of standard solution and 50 μl of internal standard (IS) solution, which was then dissolved and diluted with acetonitrile. Subsequently, it was vortexed for 3 min and at 14,000 rpm centrifugation for 5 min. The adopted 1 μl of the supernatant was used for sample injection analysis.
A total of 18 C57BL/6J mice were given YWS01125 by oral administration with a dose of 10, 20, and 40 mg/kg, respectively ([Lally et al., 2019]; [Kelly et al., 2014]; [Motamed et al., 2017]) (with the concentration of drug administration selected according to the study by Kelly et al.). The blood samples of 20 μl were collected and placed in heparinized tubes from the ophthalmic venous plexus before and at 0.03, 0.08, 0.16, 0.25, 0.50, 1, 2, 4, 6, 8, 12, and 24 h. The samples were immediately centrifuged at 14,000 rpm for 10 min at 4°C. The plasma was separated and stored below −80°C until UHPLC-MS/MS analysis.
The validated method was applied to the pharmacokinetic study of YWS01125 in normal C57BL/6J mice after oral administration, at doses of 10, 20, and 40 mg/kg suspensions with sodium carboxymethyl cellulose (CMCNa). YWS01125 was measured in the plasma until the last blood collection time (24 h). The main pharmacokinetic parameters of YWS01125 were processed by a no compartmental model using the DAS 2.0 software package, and the pharmacokinetic parameters are summarized in Table 4.

Series [2] is described as follows: Stability of liver microsomes study (mouse). Format: in vitro ADME. As to conditions: mouse liver microsomes 0.50 mg/ml, NADPH-generating system, 37°C, 0-90 min. On the procedure: Hypersil GOLD C18 column (4.6 × 150 mm, 5 μm, Thermo). A 0.025% ammonia aqueous solution in water (solvent A) and acetonitrile (solvent B) were used as mobile phases with gradient elution. The gradient was as follows: 0.01 min, 15% B; 5 min, 20% B; 12 min, 80% B; 16 min, 80% B; 16.01 min, 15% B; 19 min, 15% B; and 19.01 min, stopped. The timing interval was 19 min, and the flow rate was set at 1 ml/min.
The incubation system was carried out in 0.05 M Tris/KCl buffer (PH = 7.4) and included the following: pyrazinone compounds dissolved with dimethyl sulfoxide (DMSO), mouse liver microsomes and human liver microsomes at 0.50 mg/ml, 1.30 mM nicotinamide adenine dinucleotide sodium phosphate (NADP), 3.30 mM glucose-6-phosphate disodium salt (G-6-P), 0.40 units/mL glucose-6-phosphate dehydrogenase (G-6-PDH), and 3.30 mM magnesium chloride. […] After preincubation for 3 min in an 850-rpm blender (37°C), liver microsomes were added to initiate the incubation reaction (37°C). The incubation time was 0, 30, 60, and 90 min. After incubation, an equal volume of cold acetonitrile was added to stop the reaction, and an internal standard (0.05 mg/ml acetaminophen solution) was added. The samples were centrifuged at 10,000 rpm for 10 min to precipitate proteins ([Day et al., 2017]; [Manne et al., 2018]), and the 10 µL of the supernatant was taken for HPLC analysis.
(Microsomes from liver hold many membrane-bound enzymes, among them those of drug oxidation.)

Series [3] deals with acute liver injury model. The series can be described thus: Acute liver injury model. The class given is in vivo, rat. As to conditions: in words, no data shown.
Series [4] relates to acute hyperlipidemia mice. The series can be described thus: Acute hyperlipidemia mice. Format: in vivo. The conditions noted are these: in words, no data shown.

Take `N#Cc1cn(-c2cc(Cl)c(Oc3cc(C4CCC4)c(=O)[nH]n3)c(Cl)c2)c(=O)[nH]c1=O` [YWS01125, 1-(3,5-dichloro-4-((5-cyclobutyl-6-oxo-1,6-dihydropyridazin-3-yl)oxy)phenyl)-2,4-dioxo-1,2,3,4-tetrahydropyrimidine-5-carbonitrile]: in series [1] (oral 10 mg/kg), the Cmax is 188 ± 30 ng/mL, the Tmax is 55 min, the CL/F worked out at 160 ± 20 mL/min/kg and the MRT last is 3.42 h. Besides, in series [1] (oral 10 mg/kg), the MRT inf is 4.04 h and the half-life is 189 ± 95.3 min. Further, in series [1] (oral 20 mg/kg), the peak level (Cmax) was 293 ± 60.4 ng/mL, the Tmax was 60 min, the CL/F worked out at 250 ± 280 mL/min/kg and the MRT last is 3.06 h. For the same compound, in series [1] (oral 20 mg/kg), the MRT inf is 3.4 h and the half-life turned out to be 153 ± 38 min. In series [1] (oral 40 mg/kg), the peak concentration (Cmax) was found to be 382 ± 30.6 ng/mL, the Tmax was 55 min, the CL/F amounted to 280 ± 50 mL/min/kg and the MRT last was 4.57 h. In series [1] (oral 40 mg/kg), the MRT inf is 4.94 h and the half-life was determined as 182 ± 64.2 min. Also, the “Time of highest concentration in the blood” value in series [1] (mice, oral) is 1 h. In addition, the “Metabolic stability / metabolite formation in liver microsomes” value in series [2] is recorded as “no metabolites; also recorded: stable”. The “Effect in acute liver injury model” value in series [3] was “hepatoprotective effect”. Moreover, in series [4], the “Effect on acute hyperlipidemia mice” value was “lipid-lowering function”.
